These results are taken from patent US12629374B2, “Antimalarial agents” (Merck Sharp & Dohme LLC, priority 2020, dated 2026).

Where a name gives a salt, the structure may show the parent alone.

The first test deals with ring stage parasites. The test can be described thus: Parasite growth potency assay, 72 hours, LDH readout. It counts as cell-based. To be noted: 72 h, parasite growth measured by LDH assay after 72 hours at 37° C.; 0.7% rings, 2% haematocrit; read-out: EC50. The protocol:
The parasite stock was maintained at 4% haematocrit in RPMI-Hepes media buffered with sodium bicarbonate and supplemented with 5% heat inactivated human serum and 0.5% albumax.
On the day of assay set up, a blood smear of the parasite culture was Giemsa stained and counted. The parasitemia was adjusted to 0.7% rings and the haematocrit was diluted to 2% in RPMI-Hepes media buffered with sodium bicarbonate and supplemented with 5% heat inactivated human serum and 0.5% albumax. 30 ul of diluted parasites are then added into 10 ul of media+compound in pre-prepared Greiner TC assay plates. Parasite assay plates were placed in gassed humidified boxes in single layer and allowed to incubate at 37° C. for 72 hours. After 72 hours growth, assay plates are sealed with parafilm and frozen flat, in single file at −80° C. overnight. On the following day, assay plates are allowed to thaw at room temperature for 4 hours to which an LDH assay is performed to measure parasite growth.
`CCC1(CC)CC(=O)N([C@@H](c2cccnc2)c2cccc(C(=O)N[C@@H]3c4ccccc4C[C@H]3O)c2)C(=N)N1` [Example 109B, [4,4-diethyl-1-[[3-[[(1R,2R)-2-hydroxyindan-1-yl]carbamoyl]phenyl]-pyridin-1-ium-3-yl-methyl]-6-oxo-hexahydropyrimidin-2-ylidene]ammonium; 2,2,2-trifluoroacetate]: the EC50 worked out at 22.9 nM. Still for that read-out and setting: the same measure for `CCC1(CC)CC(=O)N([C@H](c2cncc(F)c2)c2cccc(C(=O)N[C@H]3CC(C)(C)Oc4ccccc43)c2)C(=N)N1` [Example 99A, [1-[[3-[[(4S)-2,2-dimethylchroman-4-yl]carbamoyl]phenyl]-(5-fluoropyridin-1-ium-3-yl)methyl]-4,4-diethyl-6-oxo-hexahydropyrimidin-2-ylidene]ammonium; 2,2,2-trifluoroacetate]: 0.6 nM; for `CC[C@]1(CC(C)C)CC(=O)N(Cc2cc(F)cc(C(=O)N[C@@H]3c4ccccc4C[C@H]3O)c2)C(=N)N1` [Example 47, [(4S)-4-ethyl-1-[[3-fluoro-5-[[(1R,2R)-2-hydroxyindan-1-yl]carbamoyl]phenyl]methyl]-4-isobutyl-6-oxo-hexahydropyrimidin-2-ylidene]ammonium; 2,2,2-trifluoroacetate]: 6.5 nM; for `CC(C)[C@]1(C)CC(=O)N([C@H](c2ccccc2)c2cccc(C(=O)N[C@H]3CCOc4ccccc43)c2)C(=N)N1` [Example 9A, [(4S)-1-[(R)-[3-[[(4S)-chroman-4-yl]carbamoyl]phenyl]-phenyl-methyl]-4-isopropyl-4-methyl-6-oxo-hexahydropyrimidin-2-ylidene]ammonium; 2,2,2-trifluoroacetate]: 0.5 nM. Same read-out and setting: the same measure for `CCC1(CC)CC(=O)N([C@H](c2cccnc2)c2cccc(C(=O)N[C@@H]3c4ccccc4C[C@H]3O)c2)C(=N)N1` [Example 109A, [4,4-diethyl-1-[[3-[[(1R,2R)-2-hydroxyindan-1-yl]carbamoyl]phenyl]-pyridin-1-ium-3-yl-methyl]-6-oxo-hexahydropyrimidin-2-ylidene]ammonium; 2,2,2-trifluoroacetate]: 1.6 nM; for `C=CC[C@H](c1cccc(C(=O)N[C@H]2CCOc3ccccc32)c1)N1C(=N)NC(CC)(CC)CC1=O` [Example 41, [1-[1-[3-[[(4S)-chroman-4-yl]carbamoyl]phenyl]but-3-enyl]-4,4-diethyl-6-oxo-hexahydropyrimidin-2-ylidene]ammonium; 2,2,2-trifluoroacetate]: 0.9 nM. Same read-out and setting: to `CCC[C@H](c1cncc(C(=O)N[C@@H]2c3ccccc3C[C@H]2O)c1)N1C(=N)NC(CC)(CC)CC1=O` [Example 57, [4,4-diethyl-1-[1-[5-[[(1R,2R)-2-hydroxyindan-1-yl]carbamoyl]pyridin-1-ium-3-yl]butyl]-6-oxo-hexahydropyrimidin-2-ylidene]ammonium; 2,2,2-trifluoroacetate] belongs 0.6 nM; to `CC(C)[C@]1(C)CC(=O)N(Cc2cccc(C(=O)N[C@@H]3c4ccccc4C[C@H]3O)c2)C(=N)N1` [Example 10, [(4S)-1-[[3-[[(1R,2R)-2-hydroxyindan-1-yl]carbamoyl]phenyl]methyl]-4-isopropyl-4-methyl-6-oxo-hexahydropyrimidin-2-ylidene]ammonium; 2,2,2-trifluoroacetate], 7.9 nM; to `CCC1(CC)CC(=O)N([C@H](c2cccc(C(=O)N[C@H]3CCOc4ccccc43)c2)c2cncs2)C(=N)N1` (single isomer, unassigned) [Example 85B, trifluoroacetate], 2.1 nM. As for `CCC1(CC)CC(=O)N([C@H](CCOC)c2cccc(C(=O)N[C@@H]3c4ccccc4OC[C@H]3O)c2)C(=N)N1` [Example 152B, [4,4-diethyl-1-[(1R)-1-[3-[[(3S,4R)-3-hydroxychroman-4-yl]carbamoyl]phenyl]-3-methoxy-propyl]-6-oxo-hexahydropyrimidin-2-ylidene]ammonium; 2,2,2-trifluoroacetate], the 50% effective concentration (EC50) came out at 2 nM. Consider `COCC[C@H](c1cncc(C(=O)N[C@@H]2c3ccccc3C[C@H]2O)c1)N1C(=N)N[C@](C)(C(C)C)CC1=O` [Example 130, [(4S)-1-[1-[5-[[(1R,2R)-2-hydroxyindan-1-yl]carbamoyl]pyridin-1-ium-3-yl]-3-methoxy-propyl]-4-isopropyl-4-methyl-6-oxo-hexahydropyrimidin-2-ylidene]ammonium; 2,2,2-trifluoroacetate], for which the EC50 was determined as 18.8 nM. Same read-out and setting: the same measure for `CCC1(CC)CC(=O)N(Cc2cncc(C(=O)N[C@H]3CCOc4ccccc43)c2)C(=N)N1` [Example 24, [1-[[5-[[(4S)-chroman-4-yl]carbamoyl]-3-pyridyl]methyl]-4,4-diethyl-6-oxo-hexahydropyrimidin-2-ylidene]ammonium; 2,2,2-trifluoroacetate]: 10.1 nM; for `CCC1(CC)CC(=O)N([C@H](CCOC)c2cccc(C(=O)N[C@@H]3c4ccccc4C[C@H]3O)c2)C(=N)N1` [Example 2, 3-((R)-1-(4,4-diethyl-2-imino-6-oxotetrahydropyrimidin-1(2H)-yl)-3-methoxypropyl)-N-((1R,2R)-2-hydroxy-2,3-dihydro-1H-inden-1-yl)benzamide]: 1.3 nM; for `CCC1(CC)CC(=O)N([C@H](C)c2cccc(C(=O)N[C@H]3CCOc4ccccc43)c2)C(=N)N1` [Example 31, [1-[1-[3-[[(4S)-chroman-4-yl]carbamoyl]phenyl]ethyl]-4,4-diethyl-6-oxo-hexahydropyrimidin-2-ylidene]ammonium; 2,2,2-trifluoroacetate]: 0.8 nM. For `CCC1(CC)CC(=O)N(Cc2cc(C#N)cc(C(=O)N[C@H]3CCOc4ccccc43)c2)C(=N)N1` [Example 84, [1-[[3-[[(4S)-chroman-4-yl]carbamoyl]-5-cyano-phenyl]methyl]-4,4-diethyl-6-oxo-hexahydropyrimidin-2-ylidene]ammonium; 2,2,2-trifluoroacetate], the concentration giving a half-maximal response (EC50) was 8.3 nM. Still for that read-out and setting: the same measure for `CCC1(CC)CC(=O)N(Cc2cc(C#N)cc(C(=O)N[C@@H]3CC(C)(C)Oc4ccccc43)c2)C(=N)N1` (stereo in doubt) [Example 89A, [1-[[3-cyano-5-[(2,2-dimethylchroman-4-yl)carbamoyl]phenyl]methyl]-4,4-diethyl-6-oxo-hexahydropyrimidin-2-ylidene]ammonium; 2,2,2-trifluoroacetate]: 9.8 nM. On the same count and under the same terms, the same measure for `COCC[C@H](c1cccc(C(=O)NC2c3cc(F)ccc3OC(C)(C)C2(C)O)c1)N1C(=N)NC(C)(C)CC1=O` (stereo partly drawn) [Example 235, N-(6-fluoro-3-hydroxy-2,2,3-trimethyl-chroman-4-yl)-3-[(1R)-1-(2-imino-4,4-dimethyl-6-oxo-hexahydropyrimidin-1-yl)-3-methoxy-propyl]benzamide]: 0.32 nM; for `CCC[C@H](c1cccc(C(=O)N[C@@H]2c3ccccc3C[C@H]2O)c1)N1C(=N)N[C@@](CC)(c2ccccc2)CC1=O` [Example 67, [(4R)-4-ethyl-1-[(1R)-1-[3-[[(1R,2R)-2-hydroxyindan-1-yl]carbamoyl]phenyl]butyl]-6-oxo-4-phenyl-hexahydropyrimidin-2-ylidene]ammonium; 2,2,2-trifluoroacetate]: 2.7 nM. Still for that read-out and setting: to `CCC1(CC)CC(=O)N(Cc2cc(C(=O)N[C@@H]3c4ccccc4C[C@H]3O)ccn2)C(=N)N1` [Example 38, [4,4-diethyl-1-[[4-[[(1R,2R)-2-hydroxyindan-1-yl]carbamoyl]-2-pyridyl]methyl]-6-oxo-hexahydropyrimidin-2-ylidene]ammonium; 2,2,2-trifluoroacetate] belongs 31.3 nM; to `CCC1(CC)CC(=O)N(C(CCOC)c2ccc(C(F)(F)F)c(C(=O)N[C@@H]3c4ccccc4OC[C@H]3O)c2)C(=N)N1` (stereo partly drawn) [Example 243, 5-[1-(4,4-diethyl-2-imino-6-oxo-hexahydropyrimidin-1-yl)-3-methoxy-propyl]-N-[(3S,4R)-3-hydroxychroman-4-yl]-2-(trifluoromethyl)benzamide], 6.4 nM.

The test is the same for the next values; noted with them: parasite growth measured by LDH assay after 72 hours at 37° C.; 0.7% rings, 2% haematocrit; read-out: EC50.
For `CC[C@]1(C)CC(=O)N([C@H](CCOC)c2cccc(C(=O)NC3c4cc(F)ccc4OC(C)(C)C3(C)O)c2)C(=N)N1` (single isomer, unassigned) [Example 237A], the EC50 came to 54.6 nM. On the same count and under the same terms, the same measure for `CCC1(C)CC(=O)N([C@H](CCOC)c2cccc(C(=O)N[C@@H]3c4ccccc4C[C@@]3(C)O)c2)C(=N)N1` (stereo partly drawn) [Example 196C, 3-[(1R)-1-(4-ethyl-2-imino-4-methyl-6-oxo-hexahydropyrimidin-1-yl)-3-methoxy-propyl]-N-[(1R,2R)-2-hydroxy-2-methyl-indan-1-yl]benzamide]: 7.4 nM.

Still in this test, the particulars now being: parasite growth measured by LDH assay after 72 hours at 37° C.; 0.7% rings, 2% haematocrit; trifluoroacetate; read-out: EC50.
Consider `CCC1(CC)CC(=O)N(C(c2cncc(C(=O)N[C@H]3CC(C)(C)Oc4ccccc43)c2)c2cncs2)C(=N)N1` (stereo partly drawn) [Example 105B, [1-[[5-[[(4S)-2,2-dimethylchroman-4-yl]carbamoyl]pyridin-1-ium-3-yl]-thiazol-5-yl-methyl]-4,4-diethyl-6-oxo-hexahydropyrimidin-2-ylidene]ammonium; 2,2,2-trifluoroacetate], for which the EC50 came to 0.6 nM. On the same count and under the same terms, the same measure for `C#CCC[C@@H](c1cccc(C(=O)N[C@@H]2CC3(CCC3)Oc3ccccc32)c1)N1C(=N)NC(CC)(CC)CC1=O` (stereo in doubt) [Example 213, [4,4-diethyl-6-oxo-1-[(S)-1-[3-[[(4R)-spiro[chromane-2,1′-cyclobutane]-4-yl]carbamoyl]phenyl]pent-4-ynyl]hexahydropyrimidin-2-ylidene]ammonium; 2,2,2-trifluoroacetate]: 28.6 nM.

Broadly, the EC50 is the concentration needed to bring the measured effect to its halfway point.
